One data set has as its system TAT. Description: anti-TAT assay: SeAP reporter gene expression under control of HIV-LTR in COS cells co-transfected with TAT. The following applies: 1, 10 and 100 μM added 24 h post transfection, assayed 48 h later, three independent assays, values only in FIG. I. The data set is classed as cell-based. From the text:
FIG. I: Illustrates anti-TAT activity of Compound II. COS cells are co-transfected with TAT and Secreted Alkaline Phosphatase (SeAP) genes. The SeAP gene, under the control of the HIV-LTR (responsive to TAT activation) or the RSV-LTR (unresponsive to TAT action) serves as a monitor or reporter gene. SeAP activity in the HIV-LTR combination but not the RSV-LTR combination serves as a measure of TAT activity. Cells containing the RSV-LTR co-transfected gene combination serve as an indicator of the non-specific toxicity of added test compounds. The black bars represent the percent inhibition of SeAP activity by Compound II when the SeAP gene is under the control of HIV-LTR. The hatched bars represent the effect of […] on SeAP activity when the SeAP gene is regulated by RSV-LTR. […] The figure includes results from three separate assays.
Compound II was tested for anti-TAT activity in an anti-TAT assay described in copending patent application Case Docket No. 8320 filed on the same day as the instant application and hereby incorporated by reference. […] The anti-TAT activity is measured by the percent inhibition of SeAP gene expression under the control of HIV-LTR.

The next data set relates to COS cells. Description: parallel cytotoxicity assay: SeAP gene expression under control of RSV-LTR (unresponsive to TAT) in COS cells. In kind it is cell-based. The following applies: values only in FIG. I.
The test system of data set [1] is HIV-1 NIT strain. Description: inhibition of HIV-cytopathic effect in infected CD4+ CEM cells (live-cell count by trypan blue exclusion). In kind it is cell-based. To be noted: MOI=1, 4 days, values only in FIG. II. As for the experimental part:
(§1) FIGS. II Illustrates the anti-HIV activity of Compound II when tested according to the protocol set forth in Example 2. The open bars and the hatch bars are live-cell counts of infected and uninfected cells respectively. The filled circles are percentage of cell which were stained with antibody from AIDS patients. The duration of treatment for compound II was 4 days.
(§2) High titer virus stocks (HIV-1 NIT strain) were grown in CD4^+ CR1O cells in RMPI-1640 media (Gibco Laboratories) supplemented with 10% fetal calf serum and 0.1 mg/ml Gentamicin. The collected media were filtered through a 0.8 Micron filter and virus isolates were concentrated 100 fold and stored at -80° C.
(§3) CD4^+ CEM cells, propagated in the same medium, were incubated for 60 minutes at 37° C. with diluted stock virus at MOI=1. Cells were washed three times with phosphate buffered saline and resuspended in the medium at 2 x 10^5 cells/ml. Various quantities of Compound II were added. Four days after infection, numbers of live cells were counted by trypan blue exclusion [Mitsuya, et al. Proc. Natl. Acad. Sci. 83:1911 (1986)]. At the same time, aliquots of cells were fixed with acetone and stained with antibodies from AIDS patients, followed by a second staining with fluorescein-conjugated goat anti-human IgG (Cappel). […]

Data set [2] relates to HIV-1 NIT strain. Description: inhibition of viral antigen production (percentage of cells stained with antibodies from AIDS patients). The data set is classed as cell-based. The following applies: CEM cells, MOI=1, 4 days; values only in FIG. II. As to the method: as §1, §2, §3
The test system of a further data set is HIV. To be noted: most patients; cited from earlier work.

Data on 2 compounds can be found in US5164376A, “Method for treating retroviral infections with aryl-(2-pyrryl) keytone compound” (Hoffmann-LaRoche Inc., priority 1990, dated 1992).

“Also recorded” adds a separate entry of the source.

For the compound `NCC(=O)Nc1ccc(Cl)cc1C(=O)c1ccc[nH]1` [Compound II, 2-glycinamido-5-chlorophenyl (2-pyrryl) ketone], the “anti-TAT activity (inhibition of SeAP gene expression under HIV-LTR)” value in the data set on TAT is given as “exhibits anti-TAT activity; also recorded: specific inhibitor of TAT”. The “nonspecific toxicity (effect on SeAP activity under RSV-LTR)” value in the data set on COS cells was “does not exhibit nonspecific autotoxicity”. In addition, in the data set with HIV-1 NIT strain [1], the “inhibition of HIV-cytopathic effect” value is given as “inhibition of HIV-cytopathic effect”. In addition, the “inhibition of viral antigen production” value in the data set on HIV-1 NIT strain [2] was “inhibition of HIV-cytopathic effect and viral antigen production”.
Take `Nc1ccn([C@H]2CC[C@@H](CO)O2)c(=O)n1` [ddC]: the “virustatic range (dose)” value in the data set on HIV is reported as 0.005-0.25 mg/kg body weight.
